Results taken from PubChem BioAssay AID367 (MTDP, 2006).
The source made the active and inactive calls. The rule behind the calls is not given here.

What follows are molecules tested against Gag-Pol polyprotein (Human immunodeficiency virus type 2 subtype A (isolate ROD)) (UniProt P04584) (assay: Ribonuclease H inhibitors of HIV-2 reverse transcriptase, biochemical dose response (AID 367)). Conditions: HIV-2 RNase H, FRET RNA/DNA substrate cleavage.
Chain of Gag-Pol polyprotein (Human immunodeficiency virus type 2 subtype A (isolate ROD)) (P04584 whole entry, looked up): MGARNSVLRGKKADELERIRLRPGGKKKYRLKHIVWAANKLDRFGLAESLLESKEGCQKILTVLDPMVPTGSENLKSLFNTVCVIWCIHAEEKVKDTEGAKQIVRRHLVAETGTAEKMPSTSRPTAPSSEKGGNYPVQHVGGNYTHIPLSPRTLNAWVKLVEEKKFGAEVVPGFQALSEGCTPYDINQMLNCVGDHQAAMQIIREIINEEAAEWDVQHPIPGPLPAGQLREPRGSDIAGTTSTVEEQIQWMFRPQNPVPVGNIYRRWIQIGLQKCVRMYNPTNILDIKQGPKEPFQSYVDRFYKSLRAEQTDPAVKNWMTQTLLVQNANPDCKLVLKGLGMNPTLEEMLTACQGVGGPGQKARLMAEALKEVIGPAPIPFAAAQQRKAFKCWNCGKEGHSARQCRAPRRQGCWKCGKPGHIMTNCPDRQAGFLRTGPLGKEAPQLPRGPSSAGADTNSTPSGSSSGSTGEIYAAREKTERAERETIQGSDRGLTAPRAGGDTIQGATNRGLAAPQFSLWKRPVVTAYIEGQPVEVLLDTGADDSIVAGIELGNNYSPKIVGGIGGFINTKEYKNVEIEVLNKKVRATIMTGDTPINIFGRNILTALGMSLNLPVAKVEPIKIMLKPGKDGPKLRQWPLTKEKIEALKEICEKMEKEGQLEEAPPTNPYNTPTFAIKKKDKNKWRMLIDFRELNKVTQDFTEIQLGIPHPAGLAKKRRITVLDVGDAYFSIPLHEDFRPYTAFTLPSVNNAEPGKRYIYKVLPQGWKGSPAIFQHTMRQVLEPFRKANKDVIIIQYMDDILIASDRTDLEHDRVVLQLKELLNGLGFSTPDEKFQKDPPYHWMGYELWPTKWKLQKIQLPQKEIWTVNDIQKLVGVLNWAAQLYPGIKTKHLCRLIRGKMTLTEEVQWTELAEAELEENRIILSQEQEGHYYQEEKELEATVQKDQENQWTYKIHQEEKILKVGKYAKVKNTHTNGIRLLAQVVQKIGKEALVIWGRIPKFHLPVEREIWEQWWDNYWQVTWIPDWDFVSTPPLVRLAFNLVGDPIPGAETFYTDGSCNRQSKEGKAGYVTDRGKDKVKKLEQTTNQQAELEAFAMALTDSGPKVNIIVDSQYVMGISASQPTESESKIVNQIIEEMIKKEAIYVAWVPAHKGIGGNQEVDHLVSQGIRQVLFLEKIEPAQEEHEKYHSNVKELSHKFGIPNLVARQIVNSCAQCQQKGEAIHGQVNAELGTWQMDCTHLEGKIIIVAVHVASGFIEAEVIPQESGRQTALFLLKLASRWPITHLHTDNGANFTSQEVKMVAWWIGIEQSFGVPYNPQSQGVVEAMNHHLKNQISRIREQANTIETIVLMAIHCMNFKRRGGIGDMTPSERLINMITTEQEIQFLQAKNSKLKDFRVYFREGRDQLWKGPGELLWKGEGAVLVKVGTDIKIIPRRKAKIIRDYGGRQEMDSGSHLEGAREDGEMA

SMILES	IC50
COc1cc([C@@H]2c3cc4c(cc3C[C@H]3COC(=O)[C@@H]32)OCO4)cc(OC)c1O	inactive
O=c1c(O)cccc2cc(O)c(O)c(O)c12	1300 nM
COc1cc(C=O)ccc1OCCCOc1cccc(Oc2ccccc2)c1	> 100000 nM (inactive)
COC([CH2][Hg][n]1cnc2c1c(=O)n(C)c(=O)n2C)CN1C(=O)c2ccccc2S1(=O)=O (stereo unspecified)	900 nM
Cc1c(O)c(Br)c(C)c(O)c1Br (tested in a mixture with another compound)	700 nM
Cc1sc(NC(=O)c2ccco2)c(C(N)=O)c1C	5000 nM
